Assays:
Assay in all cases: KINOMEscan competition binding
Details in all cases: compound 10.0 µM
[1] = system: PIK3CA (human), P42336 [E545A]
[2] = system: PIK3CA (human), P42336 [H1047Y]
[3] = system: PIK3CA (human), P42336 [Q546K]
[4] = system: PIK3CA (human), P42336 [E545K]
[5] = system: KIT (human), P10721 [D816V]
[6] = system: PIK3CA (human), P42336 [C420R]
[7] = system: EIF2AK4 KD2 (human), Q9P2K8 [S808G]
[8] = system: KIT (human), P10721 [V559D/T670I]
[9] = system: FLT3 (human), P36888 [K663Q]
[10] = system: FLT3 (human), P36888 [N841I]
[11] = system: KIT (human), P10721 [V559D]
[12] = system: ABL1 (human), P00519 [E255K]
[13] = system: PIK3CA (human), P42336 [I800L]
[14] = system: EGFR (human), P00533 [P753S; 747-752 del]
[15] = system: EGFR (human), P00533 [L861Q]
[16] = system: FLT3 (human), P36888 [ITD]
[17] = system: ABL1 (human), P00519 [M351T]
[18] = system: EGFR (human), P00533 [G719S]
[19] = system: EGFR (human), P00533 [746-750 del]

Sequence of PIK3CA (human), P42336 [Q546K] (P42336 whole entry Q546K, looked up): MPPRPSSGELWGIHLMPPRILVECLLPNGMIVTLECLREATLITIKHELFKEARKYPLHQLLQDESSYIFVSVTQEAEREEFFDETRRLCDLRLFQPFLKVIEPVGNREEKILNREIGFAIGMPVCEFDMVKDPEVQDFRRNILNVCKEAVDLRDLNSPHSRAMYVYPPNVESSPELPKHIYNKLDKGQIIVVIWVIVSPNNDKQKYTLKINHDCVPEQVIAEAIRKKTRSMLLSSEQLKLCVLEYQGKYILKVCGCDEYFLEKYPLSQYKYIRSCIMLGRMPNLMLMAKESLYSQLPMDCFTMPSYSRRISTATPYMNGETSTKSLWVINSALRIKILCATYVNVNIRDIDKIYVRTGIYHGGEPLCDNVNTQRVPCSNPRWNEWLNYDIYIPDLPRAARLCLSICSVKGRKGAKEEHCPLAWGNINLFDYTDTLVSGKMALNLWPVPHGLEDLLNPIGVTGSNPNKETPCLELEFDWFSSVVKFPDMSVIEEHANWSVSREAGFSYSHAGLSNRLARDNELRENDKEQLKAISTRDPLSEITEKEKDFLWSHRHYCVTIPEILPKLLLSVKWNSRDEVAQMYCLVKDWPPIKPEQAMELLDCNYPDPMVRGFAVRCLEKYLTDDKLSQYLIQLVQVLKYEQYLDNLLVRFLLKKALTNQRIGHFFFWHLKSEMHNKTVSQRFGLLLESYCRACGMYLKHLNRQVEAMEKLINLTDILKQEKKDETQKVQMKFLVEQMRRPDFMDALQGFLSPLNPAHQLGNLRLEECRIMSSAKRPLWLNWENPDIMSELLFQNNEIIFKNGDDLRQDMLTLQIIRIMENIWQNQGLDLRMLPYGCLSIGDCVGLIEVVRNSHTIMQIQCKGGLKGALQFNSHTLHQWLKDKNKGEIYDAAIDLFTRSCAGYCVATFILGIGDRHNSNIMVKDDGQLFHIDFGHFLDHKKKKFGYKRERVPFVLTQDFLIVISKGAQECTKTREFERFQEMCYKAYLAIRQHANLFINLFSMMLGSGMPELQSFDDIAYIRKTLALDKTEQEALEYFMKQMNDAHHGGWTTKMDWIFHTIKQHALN
Sequence of EIF2AK4 KD2 (human), Q9P2K8 [S808G] (Q9P2K8 whole entry S808G, looked up): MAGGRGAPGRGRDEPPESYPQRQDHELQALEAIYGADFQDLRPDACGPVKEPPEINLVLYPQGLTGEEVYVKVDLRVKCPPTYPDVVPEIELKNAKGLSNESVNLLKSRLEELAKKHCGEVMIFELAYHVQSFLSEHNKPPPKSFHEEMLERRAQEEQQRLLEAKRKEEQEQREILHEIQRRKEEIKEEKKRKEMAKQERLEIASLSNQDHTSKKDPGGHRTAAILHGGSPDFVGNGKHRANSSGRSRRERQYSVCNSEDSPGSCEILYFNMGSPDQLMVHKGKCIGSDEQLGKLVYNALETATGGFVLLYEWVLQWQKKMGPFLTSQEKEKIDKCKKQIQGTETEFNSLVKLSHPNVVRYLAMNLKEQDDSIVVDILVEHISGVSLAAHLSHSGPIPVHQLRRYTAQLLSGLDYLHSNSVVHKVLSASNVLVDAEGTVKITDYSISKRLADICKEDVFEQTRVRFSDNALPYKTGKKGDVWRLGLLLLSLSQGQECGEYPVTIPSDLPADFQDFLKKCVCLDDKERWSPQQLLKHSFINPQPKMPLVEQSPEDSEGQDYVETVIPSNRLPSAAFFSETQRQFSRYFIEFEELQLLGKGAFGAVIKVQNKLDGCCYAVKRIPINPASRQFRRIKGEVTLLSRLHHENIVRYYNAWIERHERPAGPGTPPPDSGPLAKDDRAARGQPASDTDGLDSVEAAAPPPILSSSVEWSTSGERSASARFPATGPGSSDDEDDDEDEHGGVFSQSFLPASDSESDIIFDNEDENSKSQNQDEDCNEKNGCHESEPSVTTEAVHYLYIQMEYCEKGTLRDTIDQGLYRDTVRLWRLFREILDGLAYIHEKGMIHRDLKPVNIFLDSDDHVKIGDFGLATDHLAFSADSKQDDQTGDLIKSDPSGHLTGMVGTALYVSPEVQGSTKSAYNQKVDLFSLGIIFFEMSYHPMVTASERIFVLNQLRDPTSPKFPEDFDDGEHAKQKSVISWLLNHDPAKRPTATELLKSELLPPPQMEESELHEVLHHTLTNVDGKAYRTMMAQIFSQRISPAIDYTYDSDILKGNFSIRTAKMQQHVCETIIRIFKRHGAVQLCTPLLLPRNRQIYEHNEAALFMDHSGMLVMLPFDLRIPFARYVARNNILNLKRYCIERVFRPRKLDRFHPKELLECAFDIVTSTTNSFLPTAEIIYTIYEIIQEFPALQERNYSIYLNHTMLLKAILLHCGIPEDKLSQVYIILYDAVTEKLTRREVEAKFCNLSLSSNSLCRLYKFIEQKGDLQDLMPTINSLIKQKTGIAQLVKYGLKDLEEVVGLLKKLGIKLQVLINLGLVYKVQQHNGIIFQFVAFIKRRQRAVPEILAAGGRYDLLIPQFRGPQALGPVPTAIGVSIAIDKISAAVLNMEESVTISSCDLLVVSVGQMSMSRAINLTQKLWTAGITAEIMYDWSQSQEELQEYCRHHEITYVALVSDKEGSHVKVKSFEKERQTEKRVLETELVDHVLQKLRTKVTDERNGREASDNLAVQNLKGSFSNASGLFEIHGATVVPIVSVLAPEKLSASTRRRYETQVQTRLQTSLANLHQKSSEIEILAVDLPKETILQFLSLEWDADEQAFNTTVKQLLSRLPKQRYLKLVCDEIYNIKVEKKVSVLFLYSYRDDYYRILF
Sequence of PIK3CA (human), P42336 [I800L] (P42336 whole entry I800L, looked up): as the sequence (P42336 whole entry Q546K, looked up) above, with K546Q, I800L counted along it
Sequence of PIK3CA (human), P42336 [H1047Y] (P42336 whole entry H1047Y, looked up): as the sequence (P42336 whole entry Q546K, looked up) above, with K546Q, H1047Y counted along it
Sequence of KIT (human), P10721 [V559D] (P10721 whole entry V559D, looked up): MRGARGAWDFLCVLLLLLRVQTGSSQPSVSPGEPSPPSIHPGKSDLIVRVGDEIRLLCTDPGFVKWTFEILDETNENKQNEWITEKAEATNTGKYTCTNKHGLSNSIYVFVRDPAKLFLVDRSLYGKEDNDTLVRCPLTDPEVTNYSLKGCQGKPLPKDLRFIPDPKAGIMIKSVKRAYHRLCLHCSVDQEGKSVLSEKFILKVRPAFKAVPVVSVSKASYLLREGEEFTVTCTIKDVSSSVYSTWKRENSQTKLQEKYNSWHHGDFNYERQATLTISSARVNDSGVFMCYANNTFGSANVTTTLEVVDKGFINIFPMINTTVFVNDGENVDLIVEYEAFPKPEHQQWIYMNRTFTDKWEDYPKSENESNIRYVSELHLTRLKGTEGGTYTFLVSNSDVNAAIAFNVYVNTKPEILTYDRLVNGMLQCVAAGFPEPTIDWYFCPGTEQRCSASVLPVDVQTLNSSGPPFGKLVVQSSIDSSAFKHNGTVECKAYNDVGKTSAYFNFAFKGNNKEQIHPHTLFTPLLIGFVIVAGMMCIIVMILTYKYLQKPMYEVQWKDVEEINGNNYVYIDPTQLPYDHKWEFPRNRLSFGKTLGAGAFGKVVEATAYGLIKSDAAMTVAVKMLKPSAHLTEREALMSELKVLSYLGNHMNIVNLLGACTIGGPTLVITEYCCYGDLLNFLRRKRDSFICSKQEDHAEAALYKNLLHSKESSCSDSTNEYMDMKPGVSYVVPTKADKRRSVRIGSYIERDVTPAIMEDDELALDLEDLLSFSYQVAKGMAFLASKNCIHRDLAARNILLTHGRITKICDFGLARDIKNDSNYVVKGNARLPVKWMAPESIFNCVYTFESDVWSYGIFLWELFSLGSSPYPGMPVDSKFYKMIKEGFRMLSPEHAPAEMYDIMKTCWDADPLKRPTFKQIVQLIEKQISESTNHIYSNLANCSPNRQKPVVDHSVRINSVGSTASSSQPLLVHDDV
Sequence of PIK3CA (human), P42336 [E545A] (P42336 whole entry E545A, looked up): as the sequence (P42336 whole entry Q546K, looked up) above, with E545A, K546Q counted along it
Sequence of PIK3CA (human), P42336 [E545K] (P42336 whole entry E545K, looked up): as the sequence (P42336 whole entry Q546K, looked up) above, with E545K, K546Q counted along it
Sequence of KIT (human), P10721 [V559D/T670I] (P10721 whole entry V559D/T670I, looked up): as the sequence (P10721 whole entry V559D, looked up) above, with T670I counted along it
Sequence of PIK3CA (human), P42336 [C420R] (P42336 whole entry C420R, looked up): as the sequence (P42336 whole entry Q546K, looked up) above, with C420R, K546Q counted along it
Sequence of KIT (human), P10721 [D816V] (P10721 whole entry D816V, looked up): as the sequence (P10721 whole entry V559D, looked up) above, with D559V, D816V counted along it

Row | SMILES | kinase still bound, per cent of control [1] [%] | kinase still bound, per cent of control [2] [%] | kinase still bound, per cent of control [3] [%] | kinase still bound, per cent of control [4] [%] | kinase still bound, per cent of control [5] [%] | kinase still bound, per cent of control [6] [%] | kinase still bound, per cent of control [7] [%] | kinase still bound, per cent of control [8] [%] | kinase still bound, per cent of control [9] [%] | kinase still bound, per cent of control [10] [%] | kinase still bound, per cent of control [11] [%] | kinase still bound, per cent of control [12] [%] | kinase still bound, per cent of control [13] [%] | kinase still bound, per cent of control [14] [%] | kinase still bound, per cent of control [15] [%] | kinase still bound, per cent of control [16] [%] | kinase still bound, per cent of control [17] [%] | kinase still bound, per cent of control [18] [%] | kinase still bound, per cent of control [19] [%]
1 | C[C@@H](Oc1cc(-c2cnn(C3CCNCC3)c2)cnc1N)c1c(Cl)ccc(F)c1Cl | 21 | 18 | 17 | 100 | 32 | 71 | 100 | 7 | 5.6 | 2 | 27 | – | – | – | – | – | – | – | –
2 | CC(=O)c1c(C)c2cnc(Nc3ccc(N4CCNCC4)cn3)nc2n(C2CCCC2)c1=O | 10 | 17 | 10 | 75 | 74 | 41 | 0.4 | 61 | 30 | 2.1 | 45 | 44 | 6 | 87 | 82 | 20 | – | – | –
3 | N#CCNC(=O)c1ccc(-c2ccnc(Nc3ccc(N4CCOCC4)cc3)n2)cc1 | – | 100 | 100 | 100 | 16 | 100 | 1.2 | 45 | – | 2.2 | 16 | 29 | – | 100 | 66 | 22 | 66 | 79 | 100
4 | N#C/C(=C1/Nc2ccccc2S1)c1ccnc(NCCc2cccnc2)n1 | 41 | 66 | 81 | 96 | 50 | 86 | 60 | 52 | 95 | 48 | 26 | 79 | 27 | – | – | 92 | 88 | – | –

Continued, values first:

Row | kinase still bound, per cent of control [1] [%] | kinase still bound, per cent of control [2] [%] | kinase still bound, per cent of control [3] [%] | kinase still bound, per cent of control [4] [%] | kinase still bound, per cent of control [5] [%] | kinase still bound, per cent of control [6] [%] | kinase still bound, per cent of control [7] [%] | kinase still bound, per cent of control [8] [%] | kinase still bound, per cent of control [9] [%] | kinase still bound, per cent of control [10] [%] | kinase still bound, per cent of control [11] [%] | kinase still bound, per cent of control [12] [%] | kinase still bound, per cent of control [13] [%] | kinase still bound, per cent of control [14] [%] | kinase still bound, per cent of control [15] [%] | kinase still bound, per cent of control [16] [%] | kinase still bound, per cent of control [17] [%] | kinase still bound, per cent of control [18] [%] | kinase still bound, per cent of control [19] [%] | SMILES
5 | 54 | 50 | 32 | 98 | 5.6 | 72 | 100 | – | 17 | 28 | 32 | 24 | 99 | – | – | 50 | – | – | – | CCc1nc(-c2cccc(C)c2)c(-c2ccnc(NC(=O)c3ccccc3)c2)s1
6 | 33 | 47 | 38 | 100 | 89 | – | 81 | 100 | 79 | 79 | 17 | – | 100 | – | – | 87 | – | – | – | COCC(=O)NC/C=C/c1ccc2ncnc(Nc3ccc(Oc4ccc(C)nc4)c(C)c3)c2c1
7 | – | – | – | – | 3.6 | – | – | 0.1 | 0.5 | 0.25 | 0.05 | – | – | – | – | 2.8 | – | – | – | CNC(=O)c1cc(Oc2ccc(NC(=O)Nc3ccc(Cl)c(C(F)(F)F)c3)cc2)ccn1

Source: the kinase profiling compilation of Christmann-Franck et al. (2016)
